One assay deals with T1, p38 alpha (Homo sapiens, UniProt Q16539).
T1 construct: purchased Invitrogen PV3304
Briefly: P38 alpha enzyme inhibition assay (Alphascreen kinase activity assay). In kind it is biochemical. The note with it: 100 pM p38 alpha, 2 hours preincubation at 25° C., 250 μM ATP, ATF-2 fusion protein; read-out: p38α inhibition. Put shortly: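 Phosphorylation of ATF-2 fusion protein (0.3 μg/ml) read by AlphaScreen with anti-phospho-ATF2 antibody after 1 h kinase reaction at 25 °C, initiated by 250 μM ATP. Compounds first incubated 2 h at 25 °C with 100 pM p38 alpha in pH 7.5 HEPES buffer, 1% DMSO. IC50 derived from concentration-response data.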
A general note: In Alpha technology, singlet oxygen from a donor bead excites a nearby acceptor bead.

The subject of assay [1] is Peripheral Blood Mononuclear Cells (PBMCs), TNFα release. The assay can be described thus: LPS-stimulated PBMC TNFα release assay. As to conditions: human PBMC, LPS (10 ng/ml), 18 h, compound 1 h before LPS; read-out: LPS-stimulated PBMC TNFα release inhibition. Format: cell-based. The method, then:
LPS-Stimulated PBMC TNFα Release Assay
Peripheral Blood Mononuclear Cells (PBMCs) were isolated from healthy human volunteer blood using a standard density gradient centrifugation technique. Citrated blood was placed onto Histopaque™ and centrifuged. The PBMCs were removed from the density gradient interface and washed in phosphate buffered saline (PBS). The PBMCs were suspended in RPMI 1640 medium (without serum), dispensed into a 96-well plate and incubated at 37° C. for 3 h in a humidified incubator. After incubation, the medium was replaced (with medium containing 1% foetal bovine serum) and the plate incubated at 37° C., for 1 h, in the presence of test compound or the appropriate vehicle. LPS (10 ng/ml), or an appropriate vehicle control, was then added to the cells and the plate returned to the incubator for 18 h. Cell-free supernatants were removed and assayed for TNFα levels using MSD plates on the Sector Imager 6000 (MesoScale).
A dose response curve to each test compound was performed and the effect of compound in each experiment was expressed as a percentage inhibition of the control TNFα release. Dose response curves were plotted and compound potency (IC50) was determined. Compounds were tested in at least three separate experiments.

T1 sequence (Q16539 whole entry): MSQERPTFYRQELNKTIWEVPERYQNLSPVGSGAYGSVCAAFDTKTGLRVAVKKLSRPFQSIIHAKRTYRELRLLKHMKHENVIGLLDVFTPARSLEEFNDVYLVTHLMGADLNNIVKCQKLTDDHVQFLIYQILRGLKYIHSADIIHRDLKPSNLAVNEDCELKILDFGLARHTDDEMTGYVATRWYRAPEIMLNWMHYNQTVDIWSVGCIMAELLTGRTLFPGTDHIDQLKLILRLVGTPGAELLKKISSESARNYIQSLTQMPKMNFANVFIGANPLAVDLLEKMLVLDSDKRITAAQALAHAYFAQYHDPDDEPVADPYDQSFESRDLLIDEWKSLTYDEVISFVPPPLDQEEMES

For `CCN(C)CCNC(=O)c1nc(NC(=O)N[C@H]2CC[C@@H](Oc3ccc4nnc(N(CC)CC)n4c3)c3ccccc32)cc(C(C)(C)C)n1` [Example 11, 4-(tert-Butyl)-6-(3-((1S,4R)-4-((3-(diethylamino)-[1,2,4]triazolo[4,3-a]pyridin-6-yl)oxy)-1,2,3,4-tetrahydronaphthalen-1-yl)ureido)-N-(2-(ethyl(methyl)amino)ethyl)pyrimidine-2-carboxamide], the IC50 was less than 1 nM at p38 alpha and 1 to 5 nM in assay [1].

For `COC(C)(C)c1nnc2ccc(O[C@@H]3CC[C@H](NC(=O)Nc4cc(C(C)(C)C)nc(C(=O)NCCN5CCCOCC5)n4)c4ccccc43)cn12` [Example 12, N-(2-(1,4-Oxazepan-4-yl)ethyl)-4-(tert-butyl)-6-(3-((1S,4R)-4-((3-(2-methoxypropan-2-yl)-[1,2,4]triazolo[4,3-a]pyridin-6-yl)oxy)-1,2,3,4-tetrahydronaphthalen-1-yl)ureido)pyrimidine-2-carboxamide], the IC50 on p38 alpha was in the range of 1 to 10 nM; in assay [1], 1 to 5 nM.

Take `COC(C)(C)c1nnc2ccc(O[C@@H]3CC[C@H](NC(=O)Nc4cc(C(C)(C)C)nc(CO)n4)c4ccccc43)cn12` [Example 13, 1-(6-(tert-Butyl)-2-(hydroxymethyl)pyrimidin-4-yl)-3-((1S,4R)-4-((3-(2-methoxypropan-2-yl)-[1,2,4]triazolo[4,3-a]pyridine-6-yl)oxy)-1,2,3,4-tetrahydronaphthalene-1-yl)urea]: the values for the IC50 (at p38 alpha; in assay [1]) were less than 1 nM and 1 to 5 nM, respectively.

As for `CN1CCC[C@@]1(C)c1nnc2ccc(O[C@@H]3CC[C@H](NC(=O)Nc4cc(C(C)(C)C)ncn4)c4ccccc43)cn12` [Example 14, 1-(6-(tert-Butyl)pyrimidin-4-yl)-3-((1S,4R)-4-((3-((S)-1,2-dimethylpyrrolidin-2-yl)-[1,2,4]triazolo[4,3-a]pyridin-6-yl)oxy)-1,2,3,4-tetrahydronaphthalen-1-yl)urea], the IC50 (at p38 alpha; in assay [1]) was less than 1 nM throughout.

On to `C[C@H]1CCCCN1c1nnc2ccc(O[C@@H]3CC[C@H](NC(=O)Nc4cc(C(C)(C)C)nc(CN(C)C)n4)c4ccccc43)cn12` [Example 15, 1-(6-(tert-Butyl)-2-((dimethylamino)methyl)pyrimidin-4-yl)-3-((1S,4R)-4-((3-((S)-2-methylpiperidin-1-yl)-[1,2,4]triazolo[4,3-a]pyridin-6-yl)oxy)-1,2,3,4-tetrahydronaphthalen-1-yl)urea], for which the IC50 was less than 1 nM at p38 alpha and greater than 5 nM in assay [1].

For `CC(C)(C)c1cc(NC(=O)N[C@H]2CC[C@@H](Oc3ccc4nnc(C(C)(C)C)n4c3)c3ccccc32)nc(C(=O)NCCO)n1` [Example 16, 4-(tert-Butyl)-6-(3-((1S,4R)-4-((3-(tert-butyl)-[1,2,4]triazolo[4,3-a]pyridin-6-yl)oxy)-1,2,3,4-tetrahydronaphthalen-1-yl)ureido)-N-(2-hydroxyethyl)pyrimidine-2-carboxamide], the IC50 (on p38 alpha; in assay [1]) was less than 1 nM throughout.

For the compound `C[C@@H]1CCC[C@H](C)N1c1nnc2ccc(O[C@@H]3CC[C@H](NC(=O)Nc4cc(C(C)(C)C)nc(C(=O)NCCN5CCOCC5)n4)c4ccccc43)cn12` [Example 18, 4-(tert-Butyl)-6-(3-((1S,4R)-4-((3-((2R,6S)-2,6-dimethylpiperidin-1-yl)-[1,2,4]triazolo[4,3-a]pyridin-6-yl)oxy)-1,2,3,4-tetrahydronaphthalen-1-yl)ureido)-N-(2-morpholinoethyl)pyrimidine-2-carboxamide], the IC50 at p38 alpha is less than 1 nM; in assay [1], 1 to 5 nM.

As to `C[C@@H]1CCC[C@H](C)N1c1nnc2ccc(O[C@@H]3CC[C@H](NC(=O)Nc4cc(C(C)(C)C)nc(C(=O)NCCO)n4)c4ccccc43)cn12` [Example 19, 4-(tert-Butyl)-6-(3-((1S,4R)-4-((3-((2R,6S)-2,6-dimethylpiperidin-1-yl)-[1,2,4]triazolo[4,3-a]pyridin-6-yl)oxy)-1,2,3,4-tetrahydronaphthalen-1-yl)ureido)-N-(2-hydroxyethyl)pyrimidine-2-carboxamide], the IC50 (at p38 alpha; in assay [1]) was less than 1 nM throughout.

Regarding `C[C@@H]1CCC[C@H](C)N1c1nnc2ccc(O[C@@H]3CC[C@H](NC(=O)Nc4cc(C(C)(C)C)nc(C(=O)NCCN(C)C)n4)c4ccccc43)cn12` [Example 20, 4-(tert-Butyl)-N-(2-(dimethylamino)ethyl)-6-(3-((1S,4R)-4-((3-((2R,6S)-2,6-dimethylpiperidin-1-yl)-[1,2,4]triazolo[4,3-a]pyridin-6-yl)oxy)-1,2,3,4-tetrahydronaphthalen-1-yl)ureido)pyrimidine-2-carboxamide], the IC50 at p38 alpha is less than 1 nM; in assay [1], 1 to 5 nM.

Consider `CC(C)(C)c1cc(NC(=O)N[C@H]2CC[C@@H](Oc3ccc4nnc(C(C)(C)C)n4c3)c3ccccc32)nc(CN2CCOCC2)n1` [Example 21, 1-(6-(tert-Butyl)-2-(morpholinomethyl)pyrimidin-4-yl)-3-((1S,4R)-4-((3-(tert-butyl)-[1,2,4]triazolo[4,3-a]pyridin-6-yl)oxy)-1,2,3,4-tetrahydronaphthalen-1-yl)urea], for which the IC50 at p38 alpha is 1 to 10 nM; in assay [1], greater than 5 nM.

Regarding `CN1CCN(C(C)(C)c2nnc3ccc(O[C@@H]4CC[C@H](NC(=O)Nc5cc(C(C)(C)C)nc(CO)n5)c5ccccc54)cn23)CC1` [Example 23, 1-(6-(tert-Butyl)-2-(hydroxymethyl)pyrimidin-4-yl)-3-((1S,4R)-4-((3-(2-(4-methylpiperazin-1-yl)propan-2-yl)-[1,2,4]triazolo[4,3-a]pyridin-6-yl)oxy)-1,2,3,4-tetrahydronaphthalen-1-yl)urea], the IC50 is 1 to 10 nM at p38 alpha and greater than 5 nM in assay [1].

Consider `CN(C)CC(=O)NCc1nc(NC(=O)N[C@H]2CC[C@@H](Oc3ccc4nnc(C(C)(C)C)n4c3)c3ccccc32)cc(C(C)(C)C)n1` [Example 24, N-((4-(tert-Butyl)-6-(3-((1S,4R)-4-((3-(tert-butyl)-[1,2,4]triazolo[4,3-a]pyridin-6-yl)oxy)-1,2,3,4-tetrahydronaphthalen-1-yl)ureido)pyrimidin-2-yl)methyl)-2-(dimethylamino)acetamide], for which the IC50 at p38 alpha is less than 1 nM; in assay [1] it was greater than 5 nM.

`CC(C)(C)c1cc(NC(=O)N[C@H]2CC[C@@H](Oc3ccc4nnc(C5(C)CCCC5)n4c3)c3ccccc32)nc(C(=O)NCCN2CCOCC2)n1` [Example 25, 4-(tert-Butyl)-6-(3-((1S,4R)-4-((3-(1-methylcyclopentyl)-[1,2,4]triazolo[4,3-a]pyridin-6-yl)oxy)-1,2,3,4-tetrahydronaphthalen-1-yl)ureido)-N-(2-morpholinoethyl)pyrimidine-2-carboxamide]: the IC50 (at p38 alpha; in assay [1]) was less than 1 nM each time.

Take `CC(=O)OCc1nc(NC(=O)N[C@H]2CC[C@@H](Oc3ccc4nnc([C@]5(C)CCCN5C)n4c3)c3ccccc32)cc(C(C)(C)C)n1` [Example 26, (4-(tert-Butyl)-6-(3-((1S,4R)-4-((3-((S)-1,2-dimethylpyrrolidin-2-yl)-[1,2,4]triazolo[4,3-a]pyridin-6-yl)oxy)-1,2,3,4-tetrahydronaphthalen-1-yl)ureido)pyrimidin-2-yl)methyl acetate]: the IC50 on p38 alpha is 1 to 10 nM; in assay [1], 1 to 5 nM.

In the case of `CN1CCC[C@@]1(C)c1nnc2ccc(O[C@@H]3CC[C@H](NC(=O)Nc4cc(C(C)(C)C)nc(CO)n4)c4ccccc43)cn12` [Example 27, 1-(6-(tert-Butyl)-2-(hydroxymethyl)pyrimidin-4-yl)-3-((1S,4R)-4-((3-((S)-1,2-dimethylpyrrolidin-2-yl)-[1,2,4]triazolo[4,3-a]pyridin-6-yl)oxy)-1,2,3,4-tetrahydronaphthalen-1-yl)urea], the IC50 (at p38 alpha; in assay [1]) was less than 1 nM in each case.

In the case of `CN(C)CCNC(=O)c1nc(NC(=O)N[C@H]2CC[C@@H](Oc3ccc4nnc([C@]5(C)CCCN5C)n4c3)c3ccccc32)cc(C(C)(C)C)n1` [Example 28, 4-(tert-Butyl)-N-(2-(dimethylamino)ethyl)-6-(3-((1S,4R)-4-((3-((S)-1,2-dimethylpyrrolidin-2-yl)-[1,2,4]triazolo[4,3-a]pyridin-6-yl)oxy)-1,2,3,4-tetrahydronaphthalen-1-yl)ureido)pyrimidine-2-carboxamide], the IC50 at p38 alpha is less than 1 nM; in assay [1], 1 to 5 nM.

Regarding `CN1CCC[C@@]1(C)c1nnc2ccc(O[C@@H]3CC[C@H](NC(=O)Nc4cc(C(C)(C)C)nc(C(=O)NCCO)n4)c4ccccc43)cn12` [Example 29, 4-(tert-Butyl)-6-(3-((1S,4R)-4-((3-((S)-1,2-dimethylpyrrolidin-2-yl)-[1,2,4]triazolo[4,3-a]pyridin-6-yl)oxy)-1,2,3,4-tetrahydronaphthalen-1-yl)ureido)-N-(2-hydroxyethyl)pyrimidine-2-carboxamide], the IC50 (on p38 alpha; in assay [1]) was less than 1 nM in each case.

Source of the values: patent US10364245B2 (CHIESI FARMACEUTICI S.p.A., priority 2017, dated 2019).
